Earlier results on five molecules are cited in patent publication US20170196794A1, “Oral Composition” (Kao Corporation, priority 2014, published 2017).

For this series the following is noted: 20° C.
For `OC[C@@H](O)[C@H](O)[C@@H](O)CO` [xylitol], the solubility in water was 66 % by mass.
In the case of `OC[C@@H](O)[C@@H](O)[C@H](O)[C@@H](O)CO` [sorbitol], the solubility in water was 72 % by mass.
In the case of `OC[C@@H](O)[C@@H](O[C@H]1O[C@H](CO)[C@@H](O)[C@H](O)[C@H]1O)[C@H](O)[C@@H](O)CO` [maltitol], the solubility in water is 60 % by mass.
With `OC[C@@H](O)[C@@H](O)CO` [erythritol], the solubility in water is given as 33 % by mass.
For the molecule `OC[C@@H](O)[C@@H](O)[C@H](O)[C@H](O)CO` [mannitol], the solubility in water was 18 % by mass.
